One experiment concerns HCC15 cells. The experiment in a line: Cell viability of KIF18a-sensitive cell lines, HCC15 (Cell Titre-Glo, 7 days). Format: cell-based. As to conditions: HCC-15 cells, 7 days, Cell Titre-Glo, read-out: HCC-15 IC50. The protocol: (§1) Cell Viability of KIF18a-Sensitive Cell Lines
(§2) Cell lines were seeded as follows 24 hours before compound treatment: HCC15 (Korean Cell Line Bank) 600 cell/well, 95 μL of RPMI-1640 media supplemented with 100 units/mL penicillin, 100 units/mL streptomycin and 10% FBS; NIH:OVCAR-3 (ATCC), 1000 cell/well, 95 μL of RPMI-1640 media supplemented with 100 units/mL penicillin, 100 units/mL streptomycin, 0.01 mg/mL bovine insulin, and 20% FBS; JIMT-1 (Addexbio) 1000 cell/well, 95 μL of DMEM media supplemented with 100 units/mL penicillin, 100 units/mL streptomycin, and 10% FBS.
(§3) Test compounds were added to cells in a 20× dilution scheme by adding 5 μL of serially diluted compound to the plate, and the treated cells were incubated for an additional 7 days in a 37° C., 5% CO2 incubator. DMSO was used as the negative control (0% effect), and wells omitting cells were used as the positive control (100% effect). The cells were incubated for seven days, and cell viability determined via the Promega Cell Titre-Glo® Assay kit. Luminescence units were converted to ATP concentrations via an ATP standard curve (10 point, 2-fold dilution from 5 uM). % Inhibition was calculated for each well as: ([max−min]−[test−min])/[max−min]. IC50 values were calculated from concentration vs. % Inhibition data via a four-parameter variable slope model.

For a further experiment, the system named is NIH:OVCAR-3 cells. As to the kind of experiment: Cell viability of KIF18a-sensitive cell lines, NIH:OVCAR-3 (Cell Titre-Glo, 7 days). Format: cell-based. As to conditions: NIH-OVCAR3 cells, 7 days, Cell Titre-Glo, read-out: NIH-OVCAR3 IC50. How it is done:
as §1, §2, §3

In another experiment the test system is JIMT-1 cells. The experiment in a line: Cell viability of KIF18a-sensitive cell lines, JIMT-1 (Cell Titre-Glo, 7 days). Format: cell-based. As to conditions: JIMT-1 cells, 7 days, Cell Titre-Glo, read-out: JIMT-1 IC50. How it is done:
as §1, §2, §3

Another experiment has as its target hKIF18A (1-374) (Homo sapiens (Human), UniProt Q8NI77). The experiment in a line: Inhibition of KIF18A microtubule-dependent ATPase activity (ADP-Glo). The settings on record: KIF18A microtubule-dependent ATPase activity, biochemical assay. (In general: In ADP-Glo the light output rises with the ADP produced.)
In experiment [1] the target is KIF18a-Microtubule Complex (Homo sapiens (Human), UniProt Q8NI77). As to the kind of experiment: Binding kinetics to KIF18a-microtubule complex (global progress curve analysis). The settings on record: for kon (on-rate from binding kinetics assay) / koff (off-rate from binding kinetics assay): global progress curve analysis; for Ki: read-out: KI (determined from binding kinetic assay koff/kon), koff/kon; for koff: read-out: koff (off-rate from binding kinetics assay). The protocol:
Binding Kinetics to KIF18a-Microtubule Complex
Compound binding kinetics parameters (kon and koff) were determined by the method of global progress curve analysis (GPCA). […] ADP product levels were determined by the Promega® ADP-Glo assay. The time/dose-dependent progress curves were then globally fit to a Michaelis-Menten kinetics model with 1-step slow binding inhibition to derive both on-rate kon and off-rate koff values (Zhang, R., Wong, K. (2017): “High performance enzyme kinetics of turnover, activation and inhibition for translational drug discovery”, Expert Opinion on Drug Discovery, 2017 January; 12(1):17-37. doi: 10.1080/17460441.2017.1245721).

Read-outs that look alike come from different tables or passages of the source.

Chain of KIF18a-Microtubule Complex (Q8NI77 whole entry, looked up): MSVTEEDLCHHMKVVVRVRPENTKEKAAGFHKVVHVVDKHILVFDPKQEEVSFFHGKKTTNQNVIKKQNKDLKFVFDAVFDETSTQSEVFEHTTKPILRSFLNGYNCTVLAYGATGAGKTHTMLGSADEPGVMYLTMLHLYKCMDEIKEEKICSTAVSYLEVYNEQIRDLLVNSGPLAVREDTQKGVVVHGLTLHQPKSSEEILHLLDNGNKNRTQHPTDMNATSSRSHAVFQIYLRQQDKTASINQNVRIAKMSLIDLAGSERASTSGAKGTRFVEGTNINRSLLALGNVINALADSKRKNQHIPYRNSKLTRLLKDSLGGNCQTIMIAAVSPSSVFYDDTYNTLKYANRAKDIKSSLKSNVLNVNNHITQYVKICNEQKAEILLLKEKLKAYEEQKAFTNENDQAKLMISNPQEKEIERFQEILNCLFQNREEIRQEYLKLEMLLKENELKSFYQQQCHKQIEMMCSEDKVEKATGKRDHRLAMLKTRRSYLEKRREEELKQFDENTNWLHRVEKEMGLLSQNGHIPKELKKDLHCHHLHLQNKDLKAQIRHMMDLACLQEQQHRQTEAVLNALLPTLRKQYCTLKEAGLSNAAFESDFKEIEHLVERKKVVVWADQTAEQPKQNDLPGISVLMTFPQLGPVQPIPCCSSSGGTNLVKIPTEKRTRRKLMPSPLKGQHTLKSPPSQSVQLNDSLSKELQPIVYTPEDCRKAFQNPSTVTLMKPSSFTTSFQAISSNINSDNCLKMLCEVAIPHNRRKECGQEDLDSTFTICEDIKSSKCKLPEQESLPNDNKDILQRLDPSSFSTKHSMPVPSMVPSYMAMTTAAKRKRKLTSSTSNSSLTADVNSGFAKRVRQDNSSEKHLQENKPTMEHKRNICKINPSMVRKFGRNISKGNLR
Chain of KIF18a-Microtubule Complex (Q2XVP4 whole entry partner, looked up): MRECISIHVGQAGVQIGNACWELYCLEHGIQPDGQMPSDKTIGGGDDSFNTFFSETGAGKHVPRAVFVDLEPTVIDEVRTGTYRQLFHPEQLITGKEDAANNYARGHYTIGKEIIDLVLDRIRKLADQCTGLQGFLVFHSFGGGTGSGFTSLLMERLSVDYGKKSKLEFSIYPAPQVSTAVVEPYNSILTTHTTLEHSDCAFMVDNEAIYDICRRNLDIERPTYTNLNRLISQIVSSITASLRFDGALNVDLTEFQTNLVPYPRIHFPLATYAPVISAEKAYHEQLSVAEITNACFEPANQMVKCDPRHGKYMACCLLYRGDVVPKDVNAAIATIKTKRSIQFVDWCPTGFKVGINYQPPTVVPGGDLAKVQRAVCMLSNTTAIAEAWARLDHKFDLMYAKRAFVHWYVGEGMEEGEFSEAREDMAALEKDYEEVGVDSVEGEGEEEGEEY
Chain of KIF18a-Microtubule Complex (P02554 whole entry partner, looked up): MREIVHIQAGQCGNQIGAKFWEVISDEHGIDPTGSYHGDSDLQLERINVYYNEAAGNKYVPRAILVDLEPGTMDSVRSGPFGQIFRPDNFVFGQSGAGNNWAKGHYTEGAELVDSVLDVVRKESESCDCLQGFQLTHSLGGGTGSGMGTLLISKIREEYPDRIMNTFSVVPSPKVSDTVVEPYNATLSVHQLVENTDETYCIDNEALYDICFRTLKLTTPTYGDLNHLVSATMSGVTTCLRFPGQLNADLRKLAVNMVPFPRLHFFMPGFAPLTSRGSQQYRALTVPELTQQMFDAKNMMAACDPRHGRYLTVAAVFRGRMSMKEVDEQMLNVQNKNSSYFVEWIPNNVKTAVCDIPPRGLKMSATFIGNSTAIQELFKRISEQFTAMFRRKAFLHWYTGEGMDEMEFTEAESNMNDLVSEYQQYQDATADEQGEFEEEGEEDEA
Chain of hKIF18A (1-374) (Q8NI77 whole entry, looked up): as the sequence (Q8NI77 whole entry, looked up) above
Chain of hKIF18A (1-374) (Q2XVP4 whole entry partner, looked up): as the sequence (Q2XVP4 whole entry partner, looked up) above
Chain of hKIF18A (1-374) (P02554 whole entry partner, looked up): as the sequence (P02554 whole entry partner, looked up) above
Protocol for hKIF18A (1-374): Biological Assays Inhibition of KIF18A Microtubule-Dependent ATPase Activity:
Test compounds were plated in a 3× dilution scheme in a 384-well plate. Assay buffer: 80 mM PIPES (pH 6.9), 1 mM MgCl2, 75 mM KCl, 1 mM EGTA, 1 mM DTT, 0.01% BSA, 0.005% Tween-20, 1 μM Taxol in H2O. […] After incubation at room temperature for 30 min, 2.5 μL of microtubule mix was added [0.2 mg/mL pre-formed microtubules, 2.0 mM ATP in assay buffer], the plate was centrifuged for 30 s and then incubated at 28° C. for 60 min. 5 μL of Promega® ADP-Glo Max R1 was added, the plate was centrifuged for 30 s, and the mixture incubated for 4 h at room temperature. 10 μL of Promega® ADP-Glo Max R2 was added, the plate centrifuged for 30 s, and incubated for 60 min at room temperature. Luminescence was measured with an Envision plate reader, and % Inhibition was calculated for each well as: ([max−min]−[test−min])/[max−min]. IC50 values were calculated from concentration vs. % Inhibition data via a four-parameter variable slope model.

The IC50 is the point on the concentration scale where inhibition reaches its midpoint. In the case of `CS(=O)(=O)Nc1ccc2c(c1)C1(CCC3(CC3)CC1)CN2C(=O)c1cccc(S(=N)(=O)C2CCCC2)c1` (single isomer, unassigned) [Compound 287b], the IC50 is 97 nM in the experiment with HCC15 cells, 33 nM in the experiment on NIH:OVCAR-3 cells, 64 nM in the experiment with JIMT-1 cells and 12 nM on hKIF18A (1-374).
Take `CS(=O)(=O)Nc1ccc2c(c1)C1(CCC3(CC3)CC1)CN2C(=O)c1ccc([C@H](O)C2CCCC2)o1` (single isomer, unassigned) [Compound 352a]: the half-inhibitory concentration (IC50) in the experiment on HCC15 cells came out at 34 nM; in the experiment on NIH:OVCAR-3 cells it was 45 nM; with JIMT-1 cells it was 40 nM.
Take `CS(=O)(=O)Nc1ccc2c(c1)C1(CCC3(CC3)CC1)CN2C(=O)c1ccc([C@@H](O)C2CCCC2)o1` (single isomer, unassigned) [Compound 352b]: the IC50 with HCC15 cells was found to be 19 nM; in the experiment on NIH:OVCAR-3 cells it was 27 nM; in the experiment on JIMT-1 cells, 19 nM.
The term koff denotes the first-order rate constant of dissociation. As to `CS(=O)(=O)Nc1ccc2c(c1)C1(CCCCC1)CN2C(=O)c1cccc(S(=O)(=O)N2CCC(F)(F)CC2)c1` [Compound 19, N-(1′-(3-((4,4-difluoropiperidin-1-yl)sulfonyl)benzoyl)spiro[cyclohexane-1,3′-indolin]-5′-yl)methanesulfonamide], in experiment [1], the “kon (on-rate from binding kinetics assay)” value (“kon” below) came to 14200 M⁻¹ s⁻¹, the “disc. t1/2 (dissociation half-life ln(2)/koff)” value is reported as 7.2 h, the Ki is 1.8 nM and the koff was 2.67e-05 s⁻¹. The IC50 in the experiment on HCC15 cells (HCC15, 168 h) was 92 nM. Moreover, the IC50 against hKIF18A (1-374) turned out to be 32 nM.
For `CCNc1ccc2c(c1)C1(CCC3(CC3)CC1)CN2C(=O)c1cccc(S(=O)(=O)N2CCC(F)(F)CC2)c1` [Compound 30, (3-((4,4-difluoropiperidin-1-yl)sulfonyl)phenyl)(5″-(ethylamino)dispiro[cyclopropane-1,1′-cyclohexane-4′,3″-indolin]-1″-yl)methanone], the half-maximal inhibitory concentration (IC50) was 3500 nM with HCC15 cells (HCC15, 168 h); 1430 nM in the experiment with NIH:OVCAR-3 cells (Homo sapiens, OVCAR-3, 168 h); 2300 nM in the experiment with JIMT-1 cells (Homo sapiens, 168 h); 180 nM against hKIF18A (1-374).
For `CS(=O)(=O)Nc1ccc2c(c1)C1(CCCCC1)CN2C(=O)c1cccc(S(=O)(=O)C2CCCCC2)c1` [Compound 70, N-(1′-(3-(cyclohexylsulfonyl)benzoyl)spiro[cyclohexane-1,3′-indolin]-5′-yl)methanesulfonamide], in experiment [1], the “kon” value amounted to 10000 M⁻¹ s⁻¹, the “disc. t1/2 (dissociation half-life ln(2)/koff)” value turned out to be 3.0 h, the Ki is 6.5 nM and the koff is 6.39e-05 s⁻¹. Further, in the experiment with HCC15 cells (HCC15, 168 h), the IC50 was found to be 590 nM. Also, the IC50 against hKIF18A (1-374) amounted to 30 nM.
`CC(C)(C)NS(=O)(=O)c1cccc(C(=O)N2C[C@]3(CC[C@H](C)CC3)c3cc(NS(C)(=O)=O)ccc32)c1` [Compound 140a]: in experiment [1], the “koff (off-rate from binding kinetics assay)” value was determined as 6.67e-06 s⁻¹, the “kon” value is 13100 M⁻¹ s⁻¹, the “disc. t1/2 (dissociation half-life ln(2)/koff)” value is given as 29 h and the Ki was 0.5 nM. In the experiment on HCC15 cells, the IC50 is 10 nM.
The corresponding values for `CC(C)(C)NS(=O)(=O)c1cccc(C(=O)N2C[C@]3(CC[C@@H](C)CC3)c3cc(NS(C)(=O)=O)ccc32)c1` [Compound 140b] are 2.22e-05 s⁻¹, 16100 M⁻¹ s⁻¹, 8.7 h, 1.4 nM and 45 nM.
In the case of `CC(C)(C)NS(=O)(=O)c1cccc(C(=O)N2CC3(CCC4(CC4)CC3)c3cc(NS(=O)(=O)CCO)ccc32)c1` [Compound 148, N-(tert-butyl)-3-(5″-((2-hydroxyethyl)sulfonamido)dispiro [cyclopropane-1,1′-cyclohexane-4′,3″- indoline]-1″- carbonyl)benzenesulfonamide], in experiment [1], the “kon” value turned out to be 13600 M⁻¹ s⁻¹, the “disc. t1/2 (dissociation half-life ln(2)/koff)” value came out at 48 h, the Ki stood at 0.29 nM and the koff is 3.89e-06 s⁻¹. Further, in the experiment on HCC15 cells (HCC15, 168 h), the IC50 turned out to be 36 nM. For the same molecule, on hKIF18A (1-374), half-maximal inhibition (IC50) required 12 nM.
Regarding `CS(=O)(=O)Nc1ccc2c(c1)C1(CCC3(CC3)CC1)CN2C(=O)c1cccc(S(=O)(=O)N2CC3(CCC3)C2)c1` [Compound 151, N-(1″-(3-((2-azaspiro[3.3]heptan-2-yl)sulfonyl)benzoyl)dispiro[cyclopropane-1,1′-cyclohexane-4′,3″-indolin]-5″- yl)methanesulfonamide], in experiment [1], the “kon” value was 26700 M⁻¹ s⁻¹, the “disc. t1/2 (dissociation half-life ln(2)/koff)” value worked out at 61 h, the Ki turned out to be 0.12 nM and the koff is 3.06e-06 s⁻¹. The IC50 with HCC15 cells (HCC15, 168 h) came to 13 nM. The IC50 against hKIF18A (1-374) was found to be 6.8 nM.
`CS(=O)(=O)Nc1ccc2c(c1)C1(CCCCC1)CN2C(=O)c1cccc(C(O)C2CCCC2)c1` (stereo not shown) [Compound 157, N-(1′-(3-(cyclopentyl(hydroxy)methyl)benzoyl)spiro[cyclohexane-1,3′-indolin]-5′-yl)methanesulfonamide]: the IC50 in the experiment with HCC15 cells (HCC15, 168 h) is 600 nM; with NIH:OVCAR-3 cells (Homo sapiens, OVCAR-3, 168 h) it was 720 nM; in the experiment with JIMT-1 cells (Homo sapiens, 168 h) it was 440 nM; against hKIF18A (1-374) it was 58 nM.
For `CS(=O)(=O)Nc1ccc2c(c1)C1(CCC3(CC3)CC1)CN2C(=O)c1cccc(CN2CCC(F)(F)CC2)c1` [Compound 163, N-(1″-(3-((4,4-difluoropiperidin-1-yl)methyl)benzoyl)dispiro[cyclopropane-1,1′-cyclohexane-4′,3″-indolin]-5″- yl)methanesulfonamide], in that order: 140 nM, 190 nM, 120 nM and 20 nM.
On to `CS(=O)(=O)Nc1ccc2c(c1)C1(CCC3(CC3)CC1)CN2C(=O)c1cccc(S(=O)(=O)NC2CC=CC2)c1` [Compound 172, N-(cyclopent-3-en-1-yl)-3-(5″- (methylsulfonamido)dispiro[cyclopropane-1,1′-cyclohexane-4′,3″-indoline]-1″-carbonyl)benzenesulfonamide], for which the IC50 in the experiment on HCC15 cells (HCC15, 168 h) was 32 nM; on hKIF18A (1-374), 5.5 nM.
`CC1(NS(=O)(=O)c2cccc(C(=O)N3CC4(CCC5(CC5)CC4)c4cc(NS(C)(=O)=O)ccc43)c2)CCC1` [Compound 182, N-(1-methylcyclobutyl)-3-(5″- (methylsulfonamido)dispiro[cyclopropane-1,1′-cyclohexane-4′,3″-indoline]-1″-carbonyl)benzenesulfonamide]: in experiment [1], the “kon” value was 30600 M⁻¹ s⁻¹, the “disc. t1/2 (dissociation half-life ln(2)/koff)” value is 24 h, the Ki worked out at 0.26 nM and the koff is 8.06e-06 s⁻¹. For the same molecule, the IC50 in the experiment with HCC15 cells (HCC15, 168 h) turned out to be 15 nM. The same molecule gave an IC50 at hKIF18A (1-374) of 7.3 nM.
With `CC(C)(C)NS(=O)(=O)c1cccc(C(=O)N2CC3(CCC4(CC4)CC3)c3cc(NS(C)(=O)=O)c(F)cc32)c1` [Compound 309, N-(tert-butyl)-3-(6″-fluoro-5″-(methylsulfonamido)dispiro[cyclopropane-1,1′-cyclohexane-4′,3″-indoline]-1″-carbonyl)benzenesulfonamide], the IC50 in the experiment on HCC15 cells (HCC15, 168 h) stood at 12 nM; in the experiment on NIH:OVCAR-3 cells (Homo sapiens, OVCAR-3, 168 h), 12 nM; in the experiment on JIMT-1 cells (Homo sapiens, 168 h), 9.4 nM; against hKIF18A (1-374), 6.5 nM.
Regarding `CC(C)(C)NS(=O)(=O)c1cccc(C(=O)N2CC3(CCC4(CC4)CC3)c3c2ccc(NS(C)(=O)=O)c3F)c1` [Compound 310, N-(tert-butyl)-3-(4″-fluoro-5″-(methylsulfonamido)dispiro[cyclopropane-1,1′-cyclohexane-4′,3″-indoline]-1″-carbonyl)benzenesulfonamide], the IC50 in the experiment with HCC15 cells (HCC15, 168 h) came out at 11 nM; in the experiment with NIH:OVCAR-3 cells (Homo sapiens, OVCAR-3, 168 h) it was 9.1 nM; in the experiment with JIMT-1 cells (Homo sapiens, 168 h), 7.9 nM; against hKIF18A (1-374) it was 6.6 nM.
As for `CC(C)(C)S(=O)(=O)Nc1cccc(C(=O)N2CC3(CCC4(CC4)CC3)c3cc(NS(C)(=O)=O)ccc32)c1` [Compound 355, 2-methyl-N-(3-(5″-(methylsulfonamido)dispiro[cyclopropane-1,1′-cyclohexane-4′,3″-indoline]-1″-carbonyl)phenyl)propane-2-sulfonamide], the IC50 is 94 nM in the experiment with HCC15 cells (HCC15, 168 h); 110 nM with NIH:OVCAR-3 cells (Homo sapiens, OVCAR-3, 168 h); 120 nM with JIMT-1 cells (Homo sapiens, 168 h); 25 nM against hKIF18A (1-374).

Values taken from patent US12084420B2, “Indoline compounds for inhibiting KIF18A” (Volastra Therapeutics, Inc., priority 2021, dated 2024).
